# Measured values taken from patent WO2020169698A1, “Sensitization of cancer cells to tnf by bet inhibition” (dated 2020).
# B1: CEA-TCB: T cell activating bispecific antibody targeting CEA on tumor cells and CD3e on T cells (antibody, chains of the INN, looked up, V domains shown)
# VH: QVQLVQSGAEVKKPGASVKVSCKASGYTFTEFGMNWVRQAPGQGLEWMGWINTKTGEATYVEEFKGRVTFTTDTSTSTAYMELRSLRSDDTAVYYCARWDFAYYVEAMDYWGQGTTVTVSS
# VL: DIQMTQSPSSLSASVGDRVTITCKASAAVGTYVAWYQQKPGKAPKLLIYSASYRKRGVPSRFSGSGSGTDFTLTISSLQPEDFATYYCHQYYTYPLFTFGQGTKLEIK
# VH2: QVQLVQSGAEVKKPGASVKVSCKASGYTFTEFGMNWVRQAPGQGLEWMGWINTKTGEATYVEEFKGRVTFTTDTSTSTAYMELRSLRSDDTAVYYCARWDFAYYVEAMDYWGQGTTVTVSS
# VL2: QAVVTQEPSLTVSPGGTVTLTCGSSTGAVTTSNYANWVQEKPGQAFRGLIGGTNKRAPGTPARFSGSLLGGKAALTLSGAQPEDEAEYYCALWYSNLWVFGGGTKLTVL
# Legend:
# MKN45 cells [1] = assay: CellTiterGlo viability with BET inhibitor + TNF, 72 h; assay type: cell-based; conditions: in combination with 15ng/ml TNF vs BET inhibitor single agent, significance for the highest concentration of compound
# HCT116 cells [2] = assay: as above; assay type: cell-based; conditions: in combination with 15ng/ml TNF vs BET inhibitor single agent, significance for the highest concentration of compound
# MC38 cells [3] = assay: Viability of p-gp 1 expressing MC38 cells with BET inhibitor + TNF +/- Zosuquidar, 72 h; assay type: cell-based, murine; conditions: for change in sensitivity by p-gp 1 block with Zosuquidar: 0.5mM (so in the source) Zosuquidar, TNF 15ng/mL, 72 hours, some concentrations tested
# [4] = tested on: MC38-huCEA expressing sc tumors; assay: In vivo antitumor efficacy against MC38-huCEA sc tumors; set-up: species or system mice; conditions: single agent; JQ1 50mg/kg ip once daily (14x) or CEA-TCB 2.5mg/kg iv twice weekly (4x); last day of study
# HCT116-NLV cells = assay: Epigenetic small molecule screen, coculture with CMV-specific T cells, 48 h; assay type: cell-based, human; conditions: Ag+ coculture, 2.5uM or 5uM
# Caspase 3,7 = Caspase 3,7 Glo activity, 8 h; assay type: cell-based; conditions: for Caspase 3,7 activity: RG6146 + 15ng/mL TNF vs RG6146 single agent, 8h
# Caspase 8 = Caspase 8 Glo activity, 8 h; assay type: cell-based; conditions: for Caspase 8 activity: RG6146 + 15ng/mL TNF vs RG6146 single agent, 8h
# HCT116-EBV cells = assay: Epigenetic small molecule screen, negative control coculture with CMV-specific T cells, 48 h; conditions: Ag- (EBV peptide) coculture, 2.5uM or 5uM
# MC38 cells [5] = assay: Synergy of RG6146 and recombinant TNF (PI positivity, ZIP model); assay type: cell-based, murine; conditions: RG6146 + recombinant TNF, 18 hours
# AU565 cells = assay: as above; assay type: cell-based, human; conditions: RG6146 + recombinant TNF, 18 hours
# MC38-Ova cells = assay: OT1 T cell co-culture cytotoxicity (PI positivity), 18 h; assay type: cell-based, murine; set-up: dose or concentration left out as unconfirmed; conditions: RG6146 with OT1 T cells
# [6] = tested on: MLL-AF9-driven acute myeloid leukemia cells; assay: OT1 T cell cytotoxicity towards MLL-AF9 AML cells (PI positivity), 16 h; assay type: cell-based, murine; conditions: 2.5uM RG6146, 16 hours
# MKN45 cells [7] = assay: Viability with CEA-TCB/PBMC conditioned media + RG6146, 72 h; assay type: cell-based
# MKN45 cells [8] = assay: Cleaved PARP Western blot with CEA-TCB conditioned media + RG6146; assay type: cell-based; conditions: RG6146 (1 and 2.5 mM as printed) + CEA-TCB conditioned media, 24h; not seen in absence of CEA-TCB
# MKN45 cells [9] = assay: Cleaved PARP Western blot with CEA-TCB 2 conditioned media + RG6146; assay type: cell-based; conditions: RG6146 (2.5 and 7 mM as printed) + CEA-TCB 2 conditioned media; not seen in absence of CEA-TCB 2
# HCT116 cells [10] = assay: as above; assay type: cell-based; conditions: RG6146 (2.5 and 7 mM as printed) + CEA-TCB 2 conditioned media; not seen in absence of CEA-TCB 2
# HCT116 cells [11] = assay: CEA-TCB bystander killing of CEA negative cells, flow cytometry, 72 h; assay type: cell-based; conditions: RG6146 15uM to 0.002uM with CEA-TCB activated T cells
# HCT116-GFP cells = assay: CEA-TCB bystander effect on CEA negative cell growth, Incucyte S3; assay type: cell-based; conditions: RG6146 combined with CEA-TCB (20nM) vs RG6146 single agent, one week
# HCT116 cells [12] = assay: CEA-TCB 2 bystander killing of CEA negative cells, flow cytometry, 72 h; assay type: cell-based; conditions: RG6146 15uM to 0.002uM with CEA-TCB 2 activated CTLs
# HCT116 cells [13] = assay: Growth with Caspase 8 knock down, Incucyte S3; assay type: cell-based; conditions: 2.5mM (so in the source) RG6146 + 15ng/ml TNF, 7 days
# MC38 cells [14] = assay: Cell death of MC38 cells overexpressing Bcl-2 or cFLIP (PI positivity), 18 h; assay type: cell-based, murine; set-up: dose or concentration left out as unconfirmed; conditions: cFLIP overexpression, RG6146 (so in the source) and TNF
# HCT116 cells [15] = assay: Viability with CEA-TCB/PBMC conditioned media + RG6146, 72 h; assay type: cell-based; conditions: 20nM CEA-TCB conditioned media + RG6146 30uM to 0.0005uM
# HCT116 cells [16] = conditions: CEA-TCB; "as has been shown for HCT116 cells that express no CEA"; cited from earlier work
# [17] = tested on: CEA on tumor cells and CD3e on T cells; conditions: mouse models; cited from earlier work
# [18] = HCT116 and MKN45 cells, inhibitor with RG6146 + TNF (significance not shown)
molecule,measurement,setting,value
Cc1sc2c(c1C)C(c1ccc(Cl)cc1)=N[C@@H](CC(=O)OC(C)(C)C)c1nnc(C)n1-2 [JQ1],viability,MKN45 cells [1],significantly decrease viability
same,viability,HCT116 cells [2],significantly decrease viability
same,change in sensitivity by p-gp 1 block with Zosuquidar,MC38 cells [3],no change
same,decreased tumor growth,[4],50%
same,viability,HCT116-NLV cells,significantly decrease viability
Cc1sc2c(c1C)C(c1ccc(Cl)cc1)=N[C@@H](CC(=O)Nc1ccc(O)cc1)c1nnc(C)n1-2 [OTX015],viability,MKN45 cells [1],significantly decrease viability
same,viability,HCT116 cells [2],significantly decrease viability
same,viability,HCT116-NLV cells,significantly decrease viability
Z-IETD-FMK: Caspase 8 inhibitor Z-IETD-FMK (R&D Systems #FMK007) (not fully specified),"block of downstream Caspase 3,7 activation","Caspase 3,7; [18]","blocked Caspase 8 and downstream Caspase 3,7 activation completely"
same,block of Caspase 8 activation,Caspase 8; [18],"blocked Caspase 8 and downstream Caspase 3,7 activation completely"
O=C(CCCCCCC(=O)Nc1ccccc1)NO [Vorinostat],viability in negative control coculture (toxicity),HCT116-EBV cells,decreased viability also in the negative control
Nc1ccccc1NC(=O)c1ccc(CNC(=O)OCc2cccnc2)cc1 [Entinostat],viability in negative control coculture (toxicity),HCT116-EBV cells,decreased viability also in the negative control
COc1cc2c(cc1-c1c(C)noc1C)ncc1[nH]c(=O)n([C@H](C)c3ccccn3)c12 [ΪBET151],viability,MKN45 cells [1],significantly decrease viability
same,viability,HCT116 cells [2],significantly decrease viability
same,viability,HCT116-NLV cells,significantly decrease viability
CCS(=O)(=O)Nc1ccc(Oc2ccc(F)cc2F)c(-c2cn(C)c(=O)c3[nH]ccc23)c1 [Mivebresib],viability,HCT116-NLV cells,significantly decrease viability
CCNC(=O)c1cc2c(-c3cc(C(C)(C)O)ccc3Oc3c(C)cc(F)cc3C)cn(C)c(=O)c2[nH]1 [ABBV744],viability,HCT116-NLV cells,significantly decrease viability
Cc1[nH]c2ccccc2c1CCNCc1ccc(/C=C/C(=O)NO)cc1 [Panobinostat],viability in negative control coculture (toxicity),HCT116-EBV cells,decreased viability also in the negative control
"Cc1sc2c(c1C)C(c1ccc(Cl)cc1)=N[C@@H](CC(=O)NCCCN1CCN(C)CC1)c1nnc(C)n1-2 [RG6146, 2-[(S)-4-(4-chloro-phenyl)-2,3,9-trimethyl-6H-l-thia-5,7,8,9a-tetraaza-cyclopenta[e]azulen-6-yl]-N-[3-(4-methyl-piperazin-l-yl)-propyl]-acetamide]",viability,MKN45 cells [1],significantly decrease viability
same,viability,HCT116 cells [2],significantly decrease viability
same,"induction of cell death, synergy with TNF",MC38 cells [5],synergstic
same,"induction of cell death, synergy with TNF",AU565 cells,synergstic
same,cell death (PI positivity),MC38-Ova cells,increased cell death
same,cytotoxic activity of OT1 T cells,[6]; perforin expressing (wild-type) OT1 T cells,augments the cytotoxic activity
same,cytotoxic activity of OT1 T cells,[6]; perforin-deficient OT1 T cells,augments the cytotoxic activity
same,viability,MKN45 cells [7]; RG6146 with CEA-TCB supernatant,decrease in viability
same,cell death (cleaved PARP),MKN45 cells [8],able to induce cell death
same,cell death (cleaved PARP),MKN45 cells [9],able to induce cell death
same,cell death (cleaved PARP),HCT116 cells [10],able to induce cell death
same,cell killing in CEA negative cells,HCT116 cells [11],able to increase cell killing
same,cell growth of CEA negative cells,HCT116-GFP cells,significantly decrease cell growth
same,cell killing in CEA negative cells,HCT116 cells [12],able to increase cell killing
same,"Caspase 3,7 activity","Caspase 3,7; HCT116 cells","induces Caspase3,7 and 8 activity in HCT-116 and MKN45 cells significantly"
same,"Caspase 3,7 activity","Caspase 3,7; MKN45 cells","induces Caspase3,7 and 8 activity in HCT-116 and MKN45 cells significantly"
same,Caspase 8 activity,Caspase 8; HCT116 cells,"induces Caspase3,7 and 8 activity in HCT-116 and MKN45 cells significantly"
same,Caspase 8 activity,Caspase 8; MKN45 cells,"induces Caspase3,7 and 8 activity in HCT-116 and MKN45 cells significantly"
same,cell growth rescue,HCT116 cells [13]; Caspase 8 knockdown,rescued cell growth under these treatment conditions partially
same,cell growth,HCT116 cells [13]; scr treated cells,completely blocked HCT116 cell growth
same,cytotoxic effects of TNF+RG6146,MC38 cells [14],abrogate the cytotoxic effects
same,change in sensitivity by p-gp 1 block with Zosuquidar,MC38 cells [3],sensitized
same,sensitivity of p-gp 1 expressing MC38 cells,MC38 cells [3]; compared to JQ1,less sensitive
same,viability,HCT116-NLV cells,significantly decrease viability
B1,combination of cytokines released by CEA-TCB activated T cells with BET inhibition,MKN45 cells [7]; 20nM CEA-TCB conditioned media + RG6146 30uM to 0.0005uM,synergistically combine with BET inhibition
same,combination of cytokines released by CEA-TCB activated T cells with BET inhibition,HCT116 cells [15],synergistically combine with BET inhibition
same,decreased tumor growth,[4],60%
same,CTL killing of cells with low or no CEA,HCT116 cells [16],not able to induce CTL killing
same,PD-L1/PD-1 pathway,[17],up-regulates
same,anti-tumor activity,[17],potent anti-tumor activity
same,intratumoral T cell infiltration,[17],increased intratumoral T cell infiltration
same,"release of pro-inflammatory cytokines such as IFNy, TNF and Granzyme B",[17],increased release of pro-inflammatory cytokines
